# Results reported in ChEMBL document CHEMBL1127882, “Synthesis of coumarins as subtype-selective inhibitors of monoamine oxidase” (Bioorg Med Chem Lett, 1994).
# Assays:
# [1] = molecular target: T1, Amine oxidase [flavin-containing] A (Rattus norvegicus, UniProt P21396); experiment: In vitro inhibitory against monoamine oxidase A (MAO-A) in rat brain homogenate.; format: tissue-based
# T1 sequence (P21396 whole entry): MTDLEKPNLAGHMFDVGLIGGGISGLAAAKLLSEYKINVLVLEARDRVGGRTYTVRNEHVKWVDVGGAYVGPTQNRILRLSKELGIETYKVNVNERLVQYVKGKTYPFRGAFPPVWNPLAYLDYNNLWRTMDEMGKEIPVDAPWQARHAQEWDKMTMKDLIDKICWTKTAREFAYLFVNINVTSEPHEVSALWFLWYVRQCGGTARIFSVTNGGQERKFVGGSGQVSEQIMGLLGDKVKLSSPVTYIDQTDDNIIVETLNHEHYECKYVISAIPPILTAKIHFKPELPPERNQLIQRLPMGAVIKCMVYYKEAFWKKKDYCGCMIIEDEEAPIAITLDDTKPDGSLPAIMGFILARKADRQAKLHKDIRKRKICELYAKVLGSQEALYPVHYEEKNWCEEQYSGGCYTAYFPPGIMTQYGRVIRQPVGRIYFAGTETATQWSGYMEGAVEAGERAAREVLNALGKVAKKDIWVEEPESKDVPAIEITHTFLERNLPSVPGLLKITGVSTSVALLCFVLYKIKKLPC
# [2] = molecular target: T2, Amine oxidase [flavin-containing] B (Rattus norvegicus, UniProt P19643); experiment: In vitro inhibitory activity against monoamine oxidase B (MAO-B) in rat brain homogenate.; format: tissue-based
# T2 sequence (P19643 whole entry): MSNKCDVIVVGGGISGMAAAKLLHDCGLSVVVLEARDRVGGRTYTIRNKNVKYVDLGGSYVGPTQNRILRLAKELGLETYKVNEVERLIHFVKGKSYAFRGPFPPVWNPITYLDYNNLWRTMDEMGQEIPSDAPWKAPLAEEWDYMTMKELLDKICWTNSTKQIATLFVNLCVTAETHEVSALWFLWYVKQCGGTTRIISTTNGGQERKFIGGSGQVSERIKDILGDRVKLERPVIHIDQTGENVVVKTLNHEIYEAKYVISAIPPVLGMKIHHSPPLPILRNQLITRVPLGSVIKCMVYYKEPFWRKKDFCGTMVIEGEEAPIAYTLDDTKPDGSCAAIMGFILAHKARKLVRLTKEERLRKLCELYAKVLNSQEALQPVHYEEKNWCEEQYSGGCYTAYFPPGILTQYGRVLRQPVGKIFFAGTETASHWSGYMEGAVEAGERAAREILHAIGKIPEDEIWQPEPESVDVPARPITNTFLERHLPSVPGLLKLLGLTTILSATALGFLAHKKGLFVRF
IC50 [1] [µM],IC50 [2] [µM],SMILES
> 10,–,Cc1c(C)c2ccc(OCc3nc(C(C)C)no3)cc2oc1=O
> 10,> 10,Cc1c(C)c2ccc(OCc3ccc(C(C)C)cc3)c(C)c2oc1=O
> 10,10,Cc1c(C)c2ccc(OC(C)c3ccc(C(C)C)cc3)cc2oc1=O (stereo not given)
> 10,0.0009,Cc1c(C)c2ccc(OCc3nnc(C(C)C)s3)cc2oc1=O [ATIBEPRONE]
10,0.0014,Cc1c(C)c2ccc(OCc3csc(C(C)C)n3)cc2oc1=O
1.8,0.009,Cc1c(C)c2ccc(OCc3ccccn3)cc2oc1=O
~10,> 10,Cc1c(C)c2ccc(O)cc2oc1=O
–,5,CCS(=O)(=O)Oc1ccc2c(C)c(C)c(=O)oc2c1 [ESUPRONE]
7,0.0008,Cc1c(C)c2ccc(OCc3cc(C4CC4)on3)cc2oc1=O
5.6,0.015,Cc1nnc(COc2ccc3c(C)c(C)c(=O)oc3c2)o1
–,> 10,CCCCCCCCS(=O)(=O)Oc1ccc2c(C)c(C)c(=O)oc2c1
–,> 10,Cc1c(C)c2ccc(OS(C)(=O)=O)cc2oc1=O
0.016,2.2,CCCCCS(=O)(=O)Oc1ccc2c(C)c(C)c(=O)oc2c1
0.071,0.0005,COc1ccc2c(C)c(C)c(=O)oc2c1

SMILES,IC50 [1] [µM],IC50 [2] [µM]
COc1cc(Br)c2oc(C3CCNCC3)cc2c1 [BROFAROMINE],0.005,–
